Here are results for 29 molecules from patent publication US8859549B2, “Potassium channel modulators” (AbbVie, Inc., priority 2011, dated 2014).

This assay concerns the target T1, KCNQ 2/3 channels (Homo sapiens, UniProt O43525+O43526).
T1 construct: expressed in transfected cells; host or cells: HEK293
The assay can be described thus: KCNQ 2/3 channel activation, thallium flux FLIPR assay (BTC-AM dye). In kind it is cell-based. The note with it: for Emax: HEK293, maximum response relative to the response of 10 μM retigabine (set at 100%), read-out: % MAX; for EC50: HEK293 cells stably expressing human KCNQ2 and KCNQ3 subunits, thallium-induced fluorescence, 4 min compound incubation. As to the method: The following example describes the assay that can be used to identify compounds that activate KCNQ 2/3 channels.
HEK293 cells stably expressing human KCNQ2 and KCNQ3 subunits were seeded in 96-well, black-walled, clear-bottomed, poly-D-lysine coated plates (BD Biosciences, Bedford, Mass.) at a density of 1×10^5 cells per well 24 hours before the assay. On the assay day, BTC-AM dye (Invitrogen, Carlsbad, Calif.) was loaded into the cells by replacing the cell culture medium with 55 μL/well of 3 μg/mL dye in DPBS. Dye loading was allowed to proceed for 2 hours at room temperature and then cells were washed twice with 50 μL/well of assay buffer (in mM: 10 HEPES pH 7.3, 5 glucose, 140 Na-gluconate, 2.5 K-gluconate, 3.6 Ca-gluconate, 2 MgSO4, 0.1 Ouabain) to remove unloaded dye. Cells were incubated in 50 μL of assay buffer before loading onto a FLIPR system (Molecular Devices, Sunnyvale, Calif.). Various concentrations of compounds to be assayed were added to the cells in 50 μL of assay buffer and incubated for 4 minutes. The fluorescence signal was initiated by adding 100 μL of assay buffer containing 6 mM TlNO3 and 10 mM K2SO4. Fluors were excited using the 488-nm line of an argon laser and emission was filtered using a 540±30 nm bandpass filter. Fluorescent signals were recorded for 3 minutes. Sums of the responses over basal responses were plotted versus concentrations of test compounds to obtain an EC50 value. The maximum response for each test compound was determined relative to the response produced by 10 μM retigabine. The maximum response of retigabine at 10 μM was set at 100%.

A word on the EC50: it is the concentration at which the effect is half-maximal. Higher therefore signals a need for much substance. Molecule `CN(Cc1ccccc1)c1nn(NC(=O)Cc2ccc(Cl)cc2)c(=O)c2ccccc12` [Example 36, N-{4-[benzyl(methyl)amino]-1-oxophthalazin-2(1H)-yl}-2-(4-chlorophenyl)acetamide] showed a half-maximal effective concentration (EC50) of 221 nM. Besides, the Emax (HEK293 KCNQ2/KCNQ3 cells) amounted to 105%.
The molecule `Cc1cccc(CC(=O)Nn2nc(N3CCOCC3)c3ccccc3c2=O)c1` [Example 140, 2-(3-methylphenyl)-N-[4-(morpholin-4-yl)-1-oxophthalazin-2(1H)-yl]acetamide] displayed a 50% effective concentration (EC50) of 6890 nM. Besides, where the note is “HEK293 KCNQ2/KCNQ3 cells”, the Emax was found to be 103%.
The matching figures for `O=C(Cc1ccc(Cl)cc1)Nn1nc(-c2cccs2)c2ccccc2c1=O` [Example 11, 2-(4-chlorophenyl)-N-[1-oxo-4-(thiophen-2-yl)phthalazin-2(1H)-yl]acetamide]: 297 nM and 105%.
As to “(1R,2S,5R)-5-methyl-2-(propan-2-yl)cyclohexyl[(3-{[(4-chlorophenyl)acetyl]amino}-4-oxo-3,4-dihydrophthalazin-1-yl)methyl]carbamate [Example 180]”, the EC50 amounted to 1610 nM. The “% MAX” value (maximum response relative to the response of 10 μM retigabine (set at 100%), HEK293 KCNQ2/KCNQ3 cells) was 57.6%.
In turn, `CCC(C)(C)OC(=O)NCc1nn(NC(=O)Cc2ccc(Cl)cc2)c(=O)c2ccccc12` [Example 182, 2-methylbutan-2-yl[(3-{[(4-chlorophenyl)acetyl]amino}-4-oxo-3,4-dihydrophthalazin-1-yl)methyl]carbamate] showed an EC50 of 1320 nM. In addition, the Emax (HEK293 KCNQ2/KCNQ3 cells) amounted to 63.8%.
On the same counts, the results for `O=C(Cc1ccc(Cl)cc1)Nn1nc(Sc2ccncc2)c2ccccc2c1=O` [Example 191, 2-(4-chlorophenyl)-N-[1-oxo-4-(pyridin-4-ylsulfanyl)phthalazin-2(1H)-yl]acetamide] are 1320 nM and 78.5%.
In turn, `O=C(CC1CC2CCC1C2)Nn1nc(N2CCOCC2)c2ccccc2c1=O` (racemic) [Example 3, (±)-2-[(exo)-bicyclo[2.2.1]hept-2-yl]-N-[4-(morpholin-4-yl)-1-oxophthalazin-2(1H)-yl]acetamide] came in with an EC50 of 331 nM. Further, the Emax (HEK293 KCNQ2/KCNQ3 cells) was determined as 142%.
Take `CC(C)(C)OC(=O)NCc1nn(NC(=O)C[C@@H]2CC[C@H]3C[C@@H]2C3(C)C)c(=O)c2ccccc12` [Example 119, tert-butyl{[3-({[(1S,2S,5S)-6,6-dimethylbicyclo[3.1.1]hept-2-yl]acetyl}amino)-4-oxo-3,4-dihydrophthalazin-1-yl]methyl}carbamate]: the Emax (HEK293 KCNQ2/KCNQ3 cells) amounted to 33.9%.
Regarding `O=C(Cc1ccc(F)cc1)Nn1nc(S(=O)(=O)c2ccccc2)c2ccccc2c1=O` [Example 193, 2-(4-fluorophenyl)-N-[1-oxo-4-(phenylsulfonyl)phthalazin-2(1H)-yl]acetamide], it took 79.2 nM to reach a half-maximal effect (EC50). Moreover, the Emax (HEK293 KCNQ2/KCNQ3 cells) amounted to 87.9%.
The matching figures for `O=C(CC1CC2CCC1C2)Nn1nc(Sc2ccccc2)c2ccccc2c1=O` (racemic) [Example 59, (±)-2-[(exo)-bicyclo[2.2.1]hept-2-yl]-N-[1-oxo-4-(phenylsulfanyl)phthalazin-2(1H)-yl]acetamide]: 14.6 nM and 192%.
The matching figures for `O=C(Cc1cc(F)cc(F)c1)Nn1nc(-c2ccccn2)c2ccccc2c1=O` [Example 18, 2-(3,5-difluorophenyl)-N-[1-oxo-4-(pyridin-2-yl)phthalazin-2(1H)-yl]acetamide]: 2810 nM and 112%.
`O=C(CC1CCCO1)Nn1nc(-c2ccnc(Cl)c2)c2ccccc2c1=O` (stereo not drawn) [Example 73, N-[4-(2-chloropyridin-4-yl)-1-oxophthalazin-2(1H)-yl]-2-(tetrahydrofuran-2-yl)acetamide] had a half-maximal effective concentration (EC50) of 8070 nM. For the same molecule, the Emax (HEK293 KCNQ2/KCNQ3 cells) turned out to be 172%.
As for `O=C(CC12CC3CC(CC1C3)C2)Nn1nc(-c2ccc(C(F)(F)F)nc2)c2ccccc2c1=O` [Example 211, 2-(hexahydro-2,5-methanopentalen-3a(1H)-yl)-N-{1-oxo-4-[6-(trifluoromethyl)pyridin-3-yl]phthalazin-2(1H)-yl}acetamide], it took 201 nM to reach a half-maximal effect (EC50). Also, under “HEK293 KCNQ2/KCNQ3 cells”, the Emax was 137%.
In turn, `N#Cc1ccc(S(=O)(=O)c2nn(NC(=O)Cc3ccc(Cl)cc3)c(=O)c3ccccc23)cc1` [Example 222, 2-(4-chlorophenyl)-N-{4-[(4-cyanophenyl)sulfonyl]-1-oxophthalazin-2(1H)-yl}acetamide] returned an EC50 of 97.9 nM. Also, the Emax (HEK293 KCNQ2/KCNQ3 cells) turned out to be 90%.
The matching figures for `O=C(Cc1ccc(O)cc1)Nn1nc(N2CCOCC2)c2ccccc2c1=O` [Example 144, 2-(4-hydroxyphenyl)-N-[4-(morpholin-4-yl)-1-oxophthalazin-2(1H)-yl]acetamide]: 6870 nM and 39.9%.
`O=C(CC1CC2CCC1C2)Nn1nc(C2=CCOCC2)c2ccccc2c1=O` (racemic) [Example 6, (±)-2-[(exo)-bicyclo[2.2.1]hept-2-yl]-N-[4-(3,6-dihydro-2H-pyran-4-yl)-1-oxophthalazin-2(1H)-yl]acetamide] yielded an EC50 of 515 nM. Moreover, under “HEK293 KCNQ2/KCNQ3 cells”, the Emax is 140%.
On to `CS(=O)(=O)NCc1nn(NC(=O)Cc2ccc(Cl)cc2)c(=O)c2ccccc12` [Example 80, 2-(4-chlorophenyl)-N-[4-{[(methylsulfonyl)amino]methyl}-1-oxophthalazin-2(1H)-yl]acetamide], for which, for the setting “HEK293 KCNQ2/KCNQ3 cells”, the Emax came out at 26.5%.
Still for that read-out and setting: with `O=C(Cc1ccc(-c2ccccc2)cc1)Nn1nc(N2CCOCC2)c2ccccc2c1=O` [Example 158, 2-(biphenyl-4-yl)-N-[4-(morpholin-4-yl)-1-oxophthalazin-2(1H)-yl]acetamide] the figure was 6.84%.
As to `CN(C)c1ccc(-c2nn(NC(=O)CC3CC4CCC3C4)c(=O)c3ccccc23)cn1` (racemic) [Example 47, (±)-2-[(exo)-bicyclo[2.2.1]hept-2-yl]-N-{4-[6-(dimethylamino)pyridin-3-yl]-1-oxophthalazin-2(1H)-yl}acetamide], the EC50 came out at 378 nM. The Emax (HEK293 KCNQ2/KCNQ3 cells) was determined as 122%.
For `O=C(CC1CC2CCC1C2)Nn1nc(N2CCCC2)c2ccccc2c1=O` (racemic) [Example 23, (±)-2-[(exo)-bicyclo[2.2.1]hept-2-yl]-N-[1-oxo-4-(pyrrolidin-1-yl)phthalazin-2(1H)-yl]acetamide], the concentration giving a half-maximal response (EC50) was 62.8 nM. Moreover, under “HEK293 KCNQ2/KCNQ3 cells”, the Emax stood at 147%.
On the same counts, the results for `CC1CN(c2nn(NC(=O)Cc3ccc(Cl)cc3)c(=O)c3ccccc23)CC(C)O1` (stereo not drawn) [Example 62, 2-(4-chlorophenyl)-N-[4-(2,6-dimethylmorpholin-4-yl)-1-oxophthalazin-2(1H)-yl]acetamide] are 369 nM and 85.8%.
On the same counts, the results for `CN(Cc1ccccc1)c1nn(NC(=O)Cc2cc(F)cc(F)c2)c(=O)c2ccccc12` [Example 53, N-{4-[benzyl(methyl)amino]-1-oxophthalazin-2(1H)-yl}-2-(3,5-difluorophenyl)acetamide] are 132 nM and 147%.
On the same counts, the results for `O=C(CC1CC2CCC1C2)Nn1nc(C2CCOCC2)c2ccccc2c1=O` (racemic) [Example 28, (±)-2-[(exo)-bicyclo[2.2.1]hept-2-yl]-N-[1-oxo-4-(tetrahydro-2H-pyran-4-yl)phthalazin-2(1H)-yl]acetamide] are 447 nM and 145%.
`O=C(CC12CC3CC(CC1C3)C2)Nn1nc(N2CCOCC2)c2ccccc2c1=O` [Example 210, 2-(hexahydro-2,5-methanopentalen-3a(1H)-yl)-N-[4-(morpholin-4-yl)-1-oxophthalazin-2(1H)-yl]acetamide] returned an EC50 of 164 nM. Besides, the Emax (HEK293 KCNQ2/KCNQ3 cells) stood at 154%.
The matching figures for `O=C(Cc1cc(F)cc(F)c1)Nn1nc(N2CCOCC2)c2ccccc2c1=O` [Example 1, 2-(3,5-difluorophenyl)-N-[4-(morpholin-4-yl)-1-oxophthalazin-2(1H)-yl]acetamide]: 4460 nM and 130%.
Consider `Cc1ccccc1CC(=O)Nn1nc(N2CCOCC2)c2ccccc2c1=O` [Example 139, 2-(2-methylphenyl)-N-[4-(morpholin-4-yl)-1-oxophthalazin-2(1H)-yl]acetamide], for which, for the setting “HEK293 KCNQ2/KCNQ3 cells”, the Emax is -1.4%.
With `O=C(Cc1cccc(Br)c1)Nn1nc(N2CCOCC2)c2ccccc2c1=O` [Example 154, 2-(3-bromophenyl)-N-[4-(morpholin-4-yl)-1-oxophthalazin-2(1H)-yl]acetamide], the midpoint of the response, the EC50, lay at 2900 nM. Besides, the Emax (HEK293 KCNQ2/KCNQ3 cells) came out at 114%.
`O=C(CC12CC3CC(CC1C3)C2)Nn1nc(S(=O)(=O)c2ccccc2)c2ccccc2c1=O` [Example 218, 2-(hexahydro-2,5-methanopentalen-3a(1H)-yl)-N-[1-oxo-4-(phenylsulfonyl)phthalazin-2(1H)-yl]acetamide] showed an EC50 of 58.3 nM. Also, under “HEK293 KCNQ2/KCNQ3 cells”, the Emax is 151%.
`O=C(CC1CC2CCC1C2)Nn1nc(-c2cccs2)c2ccccc2c1=O` (racemic) [Example 12, (±)-2-[(exo)-bicyclo[2.2.1]hept-2-yl]-N-[1-oxo-4-(thiophen-2-yl)phthalazin-2(1H)-yl]acetamide] registered a 50% effective concentration (EC50) of 67.4 nM. Further, the Emax (HEK293 KCNQ2/KCNQ3 cells) is 136%.
